Data set [1] has as its system Cyperus serotinus, Rottb. The data set is described as follows: Preemergence weed control under flooded paddy conditions, CYPSE (Flatsedge). Further: meaning of each grade not given here. It counts as in vivo. Particulars: preemergence weeds, rated three to four weeks after treatment.
The subject of data set [2] is Oryza sativa, (L.) Tebonnet. In words: Rice tolerance to post-transplant applications under flooded paddy conditions (Example 187), ORYSAT (Rice, Tebonnet). Particulars: rated three to four weeks after treatment.
Data set [3] has as its system Monochoria vaginalis, Presl. The data set is described as follows: Preemergence weed control under flooded paddy conditions, MOOVA (Monochoria). Further: meaning of each grade not given here. It counts as in vivo. Particulars: preemergence weeds, flooded paddy, rated three to four weeks after treatment.
For data set [4], the system named is Cyperus iria. The data set is described as follows: Preemergence weed control under flooded paddy conditions, CYPIR (Rice Flatsedge). Further: meaning of each grade not given here. It counts as in vivo. Particulars: preemergence weeds, flooded paddy, rated three to four weeks after treatment.
The test system of data set [5] is Sagittaria pygmaea, L. In words: Preemergence weed control under flooded paddy conditions, SAGPY (Arrowhead (Pygmaea)). Further: meaning of each grade not given here. The class given is in vivo. Particulars: preemergence weeds, flooded paddy, rated three to four weeks after treatment.
Data set [6] concerns Echinochloa oryzoides (Ard.) Fritsch. In words: Preemergence weed control under flooded paddy conditions, ECHORC (Watergrass (Calif.)). Further: meaning of each grade not given here. The settings on record: preemergence weeds, flooded paddy, rated three to four weeks after treatment. It counts as in vivo.

Turning to `Cc1ccc(OCC(=O)OC2C=CCCC2)c(-c2nsc3ccc(-n4c(=O)cc(C(F)(F)F)n(C)c4=O)cc23)c1` (centres unmarked) [Example 185, 2-Cyclohexen-1-yl {{2-{5-[3,6-dihydro-3-methyl-2,6-dioxo-4-(trifluoromethyl)-1(2H)-pyrimidinyl]-1,2-benzisothiazol-3-yl}-p-tolyl}oxy}acetate], the “herbicidal effect rating, CYPSE” value in data set [1] (0.0315 kg/ha) and in data set [1] (0.0630 kg/ha) was 0.0 throughout. Besides, the “herbicidal effect rating, ORYSAT (rice tolerance)” value (“herbicidal effect rating, ORYSAT” for short) in data set [2] (0.0315 kg/ha) and in data set [2] (0.0630 kg/ha) was 0.0 each time. Moreover, the “herbicidal effect rating, MOOVA” value in data set [3] (0.0315 kg/ha) and in data set [3] (0.0630 kg/ha) was 9.0 throughout. Besides, the “herbicidal effect rating, CYPIR” value in data set [4] (0.0315 kg/ha) and in data set [4] (0.0630 kg/ha) was 0.0 each time. The “herbicidal effect rating, SAGPY” value in data set [5] (0.0315 kg/ha) and in data set [5] (0.0630 kg/ha) was 0.0 each time. Moreover, the “herbicidal effect rating, ECHORC” value in data set [6] (0.0315 kg/ha) and in data set [6] (0.0630 kg/ha) was 0.0 throughout.
For `C=CC(C)OC(=O)COc1ccc(C)cc1-c1nsc2ccc(-n3c(=O)cc(C(F)(F)F)n(C)c3=O)cc12` (centres unmarked) [Example 186, 1-Methylallyl {{2-{5-[3,6-dihydro-3-methyl-2,6-dioxo-4-(trifluoromethyl)-1(2H)-pyrimidinyl]-1,2-benzisothiazol-3-yl}-p-tolyl}oxy}acetate], the “herbicidal effect rating, CYPSE” value in data set [1] (0.0315 kg/ha) and in data set [1] (0.0630 kg/ha) was 9.0 each time. Moreover, the “herbicidal effect rating, ORYSAT” value in data set [2] (0.0315 kg/ha) and in data set [2] (0.0630 kg/ha) was 9.0 in each case. For the same molecule, the “herbicidal effect rating, MOOVA” value in data set [3] (0.0315 kg/ha) and in data set [3] (0.0630 kg/ha) was 9.0 in each case. Further, the “herbicidal effect rating, CYPIR” value in data set [4] (0.0315 kg/ha) and in data set [4] (0.0630 kg/ha) was 9.0 each time. For the same molecule, the “herbicidal effect rating, SAGPY” value in data set [5] (0.0315 kg/ha) and in data set [5] (0.0630 kg/ha) was 9.0 throughout. The “herbicidal effect rating, ECHORC” value in data set [6] (0.0315 kg/ha) and in data set [6] (0.0630 kg/ha) was 9.0 in each case.
Consider `CC(C)=CCOC(=O)COc1ccc(C)cc1-c1nsc2ccc(-n3c(=O)cc(C(F)(F)F)n(C)c3=O)cc12` [Example 187, 3-Methyl-2-butenyl {{2-{5-[3,6-dihydro-3-methyl-2,6-dioxo-4-(trifluoromethyl)-1(2H)-pyrimidinyl]-1,2-benzisothiazol-3-yl}-p-tolyl}oxy}acetate], for which the “herbicidal effect rating, CYPSE” value in data set [1] (0.0313 kg/ha), in data set [1] (0.0625 kg/ha), in data set [1] (0.1250 kg/ha) and in data set [1] (0.2500 kg/ha) was 0.0 throughout. Moreover, the “herbicidal effect rating, ORYSAT” value stood at 2.0 in data set [2] (0.0313 kg/ha), 3.0 in data set [2] (0.0625 kg/ha), 3.0 in data set [2] (0.1250 kg/ha) and 6.0 in data set [2] (0.2500 kg/ha). The “herbicidal effect rating, MOOVA” value came out at 8.0 in data set [3] (0.0313 kg/ha), 9.0 in data set [3] (0.0625 kg/ha), 9.0 in data set [3] (0.1250 kg/ha) and 9.0 in data set [3] (0.2500 kg/ha). Also, the “herbicidal effect rating, CYPIR” value is on record as 0.0 in data set [4] (0.0313 kg/ha), 0.0 in data set [4] (0.0625 kg/ha), 2.0 in data set [4] (0.1250 kg/ha) and 4.0 in data set [4] (0.2500 kg/ha). The “herbicidal effect rating, SAGPY” value in data set [5] (0.0313 kg/ha), in data set [5] (0.0625 kg/ha), in data set [5] (0.1250 kg/ha) and in data set [5] (0.2500 kg/ha) was 0.0 in each case. For the same molecule, the “herbicidal effect rating, ECHORC” value in data set [6] (0.0313 kg/ha) was found to be 0.0; in data set [6] (0.0625 kg/ha), 2.0; in data set [6] (0.1250 kg/ha), 6.0; in data set [6] (0.2500 kg/ha) it was 9.0.
On to `COCCOC(=O)COc1ccc(C)cc1-c1nsc2ccc(-n3c(=O)cc(C(F)(F)F)n(C)c3=O)cc12` [Example 191, 2-Methoxyethyl {{2-{5-[3,6-dihydro-3-methyl-2,6-dioxo-4-(trifluoromethyl)-1(2H)-pyrimidinyl]-1,2-benzisothiazol-3-yl}-p-tolyl}oxy}acetate], for which the “herbicidal effect rating, CYPSE” value in data set [1] (0.0313 kg/ha), in data set [1] (0.0625 kg/ha) and in data set [1] (0.1250 kg/ha) was 0.0 throughout. The “herbicidal effect rating, ORYSAT” value in data set [2] (0.0313 kg/ha) is listed as 1.0; in data set [2] (0.0625 kg/ha), 2.0; in data set [2] (0.1250 kg/ha), 3.0; in data set [2] (0.2500 kg/ha) it was 6.0. The “herbicidal effect rating, MOOVA” value in data set [3] (0.0313 kg/ha), in data set [3] (0.0625 kg/ha), in data set [3] (0.1250 kg/ha) and in data set [3] (0.2500 kg/ha) was 9.0 throughout. In addition, the “herbicidal effect rating, CYPIR” value amounted to 0.0 in data set [4] (0.0313 kg/ha), 0.0 in data set [4] (0.0625 kg/ha), 2.0 in data set [4] (0.1250 kg/ha) and 4.0 in data set [4] (0.2500 kg/ha). The “herbicidal effect rating, SAGPY” value in data set [5] (0.0313 kg/ha), in data set [5] (0.0625 kg/ha), in data set [5] (0.1250 kg/ha) and in data set [5] (0.2500 kg/ha) was 0.0 in each case. In addition, the “herbicidal effect rating, ECHORC” value in data set [6] (0.0313 kg/ha) was 0.0; in data set [6] (0.0625 kg/ha), 2.0; in data set [6] (0.1250 kg/ha) it was 4.0; in data set [6] (0.2500 kg/ha) it was 7.0.
On to `C#CCNC(=O)COc1ccc(C)cc1-c1noc2ccc(-n3c(=O)cc(C(F)(F)F)n(C)c3=O)cc12` [Example 193, 2-{{2-{5-[3,6-Dihydro-3-methyl-2,6-dioxo-4-(trifluoromethyl)-1(2H)-pyrimidinyl]-1,2-benzisoxazol-3-yl}-p-tolyl}oxy}-N-(2-propynyl)acetamide], for which the “herbicidal effect rating, CYPSE” value in data set [1] (0.0313 kg/ha), in data set [1] (0.0625 kg/ha), in data set [1] (0.1250 kg/ha) and in data set [1] (0.2500 kg/ha) was 0.0 each time. Besides, the “herbicidal effect rating, ORYSAT” value in data set [2] (0.0313 kg/ha) was determined as 0.0; in data set [2] (0.0625 kg/ha), 0.0; in data set [2] (0.1250 kg/ha), 0.0; in data set [2] (0.2500 kg/ha) it was 1.0. Also, the “herbicidal effect rating, MOOVA” value in data set [3] (0.0313 kg/ha) came out at 2.0; in data set [3] (0.0625 kg/ha) it was 4.0; in data set [3] (0.1250 kg/ha), 9.0; in data set [3] (0.2500 kg/ha), 9.0. In addition, the “herbicidal effect rating, CYPIR” value in data set [4] (0.0313 kg/ha), in data set [4] (0.0625 kg/ha), in data set [4] (0.1250 kg/ha) and in data set [4] (0.2500 kg/ha) was 0.0 each time. Besides, the “herbicidal effect rating, SAGPY” value in data set [5] (0.0313 kg/ha), in data set [5] (0.0625 kg/ha), in data set [5] (0.1250 kg/ha) and in data set [5] (0.2500 kg/ha) was 0.0 each time. Further, the “herbicidal effect rating, ECHORC” value in data set [6] (0.0313 kg/ha), in data set [6] (0.0625 kg/ha), in data set [6] (0.1250 kg/ha) and in data set [6] (0.2500 kg/ha) was 0.0 each time.
With `CCOCc1nsc2ccc(-n3c(=O)cc(C(F)(F)F)n(C)c3=O)cc12` [Example 195, 3-[3-(Ethoxymethyl)-1,2-benzisothiazol-5-yl]-1-methyl-6-(trifluoromethyl)-2,4(1H,3H)-pyrimidinedione], the “herbicidal effect rating, CYPSE” value is recorded as 0.0 in data set [1] (0.0313 kg/ha), 0.0 in data set [1] (0.0625 kg/ha), 2.0 in data set [1] (0.1250 kg/ha) and 7.0 in data set [1] (0.2500 kg/ha). The “herbicidal effect rating, ORYSAT” value was 6.0 in data set [2] (0.0313 kg/ha), 7.0 in data set [2] (0.0625 kg/ha), 9.0 in data set [2] (0.1250 kg/ha) and 9.0 in data set [2] (0.2500 kg/ha). For the same molecule, the “herbicidal effect rating, MOOVA” value in data set [3] (0.0313 kg/ha), in data set [3] (0.0625 kg/ha), in data set [3] (0.1250 kg/ha) and in data set [3] (0.2500 kg/ha) was 9.0 each time. For the same molecule, the “herbicidal effect rating, CYPIR” value in data set [4] (0.0313 kg/ha) came to 0.0; in data set [4] (0.0625 kg/ha) it was 2.0; in data set [4] (0.1250 kg/ha), 4.0; in data set [4] (0.2500 kg/ha), 9.0. Moreover, the “herbicidal effect rating, SAGPY” value in data set [5] (0.0313 kg/ha) turned out to be 0.0; in data set [5] (0.0625 kg/ha), 0.0; in data set [5] (0.1250 kg/ha) it was 1.0; in data set [5] (0.2500 kg/ha) it was 2.0. Besides, the “herbicidal effect rating, ECHORC” value in data set [6] (0.0313 kg/ha) amounted to 2.0; in data set [6] (0.0625 kg/ha), 3.0; in data set [6] (0.1250 kg/ha) it was 6.0; in data set [6] (0.2500 kg/ha), 9.0.

Source of the values: patent publication EP0908457B1, “3-(1,2-benzisothiazol- and isoxazol-5-Y1)-2,4(1H,3H)-pyrimidinedione or thione and 3-(1,2-benzisothiazol- and isoxazol-5-y1)-4(3H)-pyrimidinone or thione herbicidal agents” (BASF AKTIENGESELLSCHAFT, priority 1997, dated 1999).
